One series concerns Adenovirus. Briefly: Titration of Adenovirus after contact with docusate sodium solutions (HeLa cells). The conditions noted are these: 0.2 mg/ml. The format is cell-based.
Series [1] in a line: Cytotoxicity in solutions free of serum, MA-104. The conditions noted are these: monkey, ma-104 cells, 0.2 mg/ml, 37° C., read-out: MA-104 (toxicity). The format is cell-based, monkey. Details: key to MA-104 (toxicity): 0: Cells had normal morphology; 4+: >90% of cells showed CTE.
Method: The cell lines used to evaluate cytotoxicity of docusate sodium were MA-104 derived from monkey kidneys, HeLa derived from human uterine carcinoma and primary fibroblasts from human foreskin. The cells were grown to confluency in 60×15 mm dishes. The cell monolayers were washed free of growth medium and 5 ml of serum-less growth medium containing docusate sodium at various concentrations was added. The curtures were incubated 24 hours at 37° C. and the cells then examined microscopically for cytotoxic effects (CTE). Controls were done in the same manner except that they were not exposed to docusate sodium.
Another series relates to MA-104. Briefly: Cytotoxicity in solutions free of serum, MA-104. The format is cell-based, monkey. More on the design: key to MA-104 (toxicity): 0: Cells had normal morphology; 4+: >90% of cells showed CTE. The conditions noted are these: 24 hours, 37° C.
Series [2] is described as follows: Cytotoxicity in solutions containing serum, HeLa. In kind it is cell-based, human. The conditions noted are these: human, hela cells, 2% fetal calf serum, 37° C., read-out: HeLa (Cytotoxic effect). Details: key to HeLa (Cytotoxic effect): 0: Cells have normal morphology; 4+: >90% of cells showed CTE.; ±c: less than 10% of cells showed CTE.
Another series concerns HeLa. The series can be described thus: Cytotoxicity in solutions containing serum, HeLa. In kind it is cell-based, human. Details: key to HeLa (Cytotoxic effect): 0: Cells have normal morphology; 4+: >90% of cells showed CTE.; ±c: less than 10% of cells showed CTE. The conditions noted are these: 0.02 mg/ml, 2% fetal calf serum, 24 hours, 37° C.
For series [3], the system named is HSV-2. Briefly: Pretreatment of MA-104 cells prior to exposure to HSV-2. In kind it is cell-based, Herpes Simplex Type 2. The settings on record: 0.02 mg/ml. The protocol:
In this Example the effect that initially contacting (pretreating) MA-104 cells with docusate sodium has on subsequent exposure of such pretreated cells to HSV-2 virus was studied.
MA-104 cells were washed free of growth medium and the cells were exposed to 0.02 mg/ml docusate sodium in serum-less growth medium for one hour. The docusate sodium solution was poured off, the cells washed twice, and then exposed to appropriately diluted HSV-2. A control solution prepared as above except for exposure to docusate sodium was also provided. After one hour at 37° C., the cells were overlayed with agar and incubated for 3 days at 37° C. to allow plaques to develop.

Series [4] concerns HSV-2. The series can be described thus: Treatment of MA-104 cells infected with HSV-2. In kind it is cell-based, Herpes Simplex Type 2. The settings on record: 0.02 mg/ml for one hour at 37° C., 6 and 24 hours after infection. The protocol:
MA-104 cells were washed free of growth medium and exposed to appropriately diluted HSV-2 for one hour at 37° C. At 6 and 24 hours after infection, the MA-104 cells were exposed to a solution containing 0.02 mg of docusate sodium per ml of solution for one hour at 37° C. The docusate sodium solution was poured off, agar overlay added, and the exposed cells incubated for 3 days at 37° C. to provide for plaque development.

For another series, the system named is Rotavirus. The series can be described thus: microbe, parasite or virus in culture. In kind it is cell-based. The conditions noted are these: MA104, 0.25 h, pretreatment 15 minutes, read-out: % decrease in pfu.
Another series concerns Coxsackievirus B-5. Briefly: Pretreatment of MA-104 cells prior to exposure to Coxsackievirus B-5. The format is cell-based.
A further series has as its system herpes virus. The series can be described thus: Recovery of herpes virus from a contaminated surface (glass slides; plaques on MA-104 cells). The format is cell-based.
For series [5] the following is noted: cited from earlier work.

For the molecule `CCCCC(CC)COC(=O)CC(C(=O)OCC(CC)CCCC)S(=O)(=O)O` (stereo not shown) [docusate sodium, 1,4-bis(2-ethylhexyl)sodium sulfosuccinate], the “effect on Adenovirus replication (conclusion)” value with Adenovirus (contact time 60 minutes) is on record as “did not have a significant effect on Adenovirus replication”. Also, the pfu/ml is 150,000 pfu/ml with Adenovirus (exposure time 60 minutes (control 180,000)) and 1,800,000 pfu/ml in the series on Coxsackievirus B-5 (.02 mg/ml, pretreatment 15 minutes (control 1,000,000)). Further, in the series on Adenovirus (unidentified adenovirus, HeLa, 1 h, exposure time 60 minutes, read-out: % Inactivation), the killing at 200 µg/mL was 17%. The cytotoxicity at 24 h was above 90% in series [1], below 10% in series [2] (0.03 mg/ml) and above 90% in series [2] (0.04 mg/ml). The results for the “MA-104 (toxicity)” value in the series on MA-104 (0.01 mg/ml), in the series on MA-104 (0.05 mg/ml) and with MA-104 (0.1 mg/ml) were 0, 4+ (>90% of cells showed CTE.) and 4+ (>90% of cells showed CTE.), respectively. In addition, the “HeLa (Cytotoxic effect)” value in the series on HeLa was determined as 0. In addition, the “plaque formation (conclusion)” value with HSV-2 [3] (pretreatment) was “substantial drop in plaque formation”. Further, the “plaque forming units/ml (pfu/ml)” value with HSV-2 [3] (pretreatment one hour, serum-less (control 548)) worked out at 26 pfu/ml. Also, the inhibition at 20 µg/mL in the series on HSV-2 [3] (Human alphaherpesvirus 2, MA104, 1 h, pretreatment one hour, serum-less, read-out: % decrease in pfu) was 95%. Moreover, in the series with HSV-2 [4], the “inactivation of HSV-2 in cells infected prior to contact (conclusion)” value is “not effective in inactivating HSV-2 virus in cells infected with HSV-2”. Moreover, the inhibition at 40 µg/mL in the series on Rotavirus (0.04 mg/ml) was 10%. Also, the inhibition at 50 µg/mL with Rotavirus (0.05 mg/ml) turned out to be 70%. Also, the “effect on plaque formation (infectivity) (conclusion)” value with Coxsackievirus B-5 (0.02 mg/ml, pretreatment) is reported as “no effect on plaque formation (infectivity)”. In the series on herpes virus (0.4% in phosphate buffered saline (control 41,250; control smear 13,500)), this molecule returned a plaque forming units of 0 plaque forming units. Also, the “recovery of viruses (conclusion)” value in the series with herpes virus (smears scrubbed off with 0.4% solution) was “no viruses were recovered”. Also, the solubility in alcohol result in series [5] (alcohol) is recorded as “freely soluble in alcohol”. Further, the solubility in water result in series [5] (water) was “slowly soluble in water”.

The values are drawn from US4719235A, “Methods and compositions for treating viral infection” (Kern; Gerald N., priority 1985, dated 1988).
